The values below are quoted from earlier work in patent EP1147767A1 (J.B. Chemicals & Pharmaceuticals Ltd., priority 2000, dated 2001).

Molecules are shown by their SMILES.

The conditions of data set [1]: animal model; comparison with other NSAIDs.
For data set [2] the following is noted: 200 mg/day; respiratory tract infections, ENT disorders, dysmenorrhoea, dental surgery, urogenital tract disorders, musculoskeletal injuries.
The conditions of data set [3]: rats; comparison with other drugs.
The conditions of data set [4]: 200mg 3 times daily, rectally; Ramella et al. 1993.
For data set [5] the following is noted: 200 mg twice daily; Pierleoni et al. 1993.
The conditions of data set [6]: 200 mg twice daily, rectally; Coscarelli et al. 1993.
The conditions of data set [7]: 200 mg twice daily, granular formulation; versus naproxen 500 mg twice daily; Toscani et al. 1993.

As to `CS(=O)(=O)Nc1ccc([N+](=O)[O-])cc1Oc1ccccc1` [Nimesulide, 4'-Nitro-2'-phenoxymethanesulphonanilide], in data set [1], the ulcerogenic result was “less ulcerogenic than aspirin, indomethacin, naproxen, piroxicam and ibuprofen”. Also, the reducing clinical symptoms result in data set [2] was “generally more effective than the usual therapeutic doses of naproxen, ibuprofen, ketoprofen mefenamic acid and suprofen”. For the same compound, the antipyretic potency result in data set [3] was “superior antipyretic potency to indomethacin, ibuprofen, aspirin and paracetamol”. Further, in data set [4], the adverse reaction result is “no adverse reaction”; the “pain, oedema, hyperaemia and fever” value was “significantly less pain, oedema and hyperaemia and resolution of mild fever”. The relief result in data set [5] is recorded as “gave relief”. For the same compound, the relief of pain result in data set [6] was “gave relief in the pain associated with postoperative inflammatory complications of ear, nose and throat surgery”. In data set [7], the “analgesic efficacy (pain)” value was “similarly reduced pain with naproxen 500 mg twice daily”.
